Assay results from patent publication US10857085B2, “Preparations comprising carnosines” (Symrise AG, priority 2015, dated 2020).

How the values were obtained:
human fibroblasts [1] = assay: Synthesis of dermal macromolecules (GAG) in collagen gel containing human fibroblasts; type: cell-based; details: 0.5% by weight FCS + 0.01% by weight substance; for Density, 14 days: relative density of collagen gel (0=clear or white, 1=black)
Text: The dermis is composed of cells (fibroblasts and mast cells), tissue components (collagen and elastin) and so-called ground substances. These ground substances include, for example, glycosaminoglycan (GAG), hyaluronic acid, chondroitin sulfate, dermatan sulfate and glycoproteins. As a result of skin ageing, the intermolecular strength and elasticity of the dermis, and thus the tautness of the skin, is reduced. Likewise, the number of skin cells present, in particular fibroblasts, is reduced as the skin ages. The collagen fibers are fragmented over time, and the proportion of insoluble to soluble collagen increases. The fine dermal elastic fibers become coarse and are destroyed. The synthesis of GAG (glycosaminoglycan) is reduced. All these processes contribute to skin ageing and the manifestations thereof, such as wrinkles and lack of tautness of the skin.
The measuring method is based on staining macromolecules in a culture of human fibroblasts which, with type I collagen, forms a collagen gel or collagen lattice fibers. Certain regions of those fibers are quantified by means of staining reagents for the proportion of the mentioned macromolecules.
For that purpose, a suspension of human fibroblasts was mixed with a solution of type I collagen (1-2 mg/ml). This mixture was incubated in a defined nutrient medium (DMEM=Dulbecco minimum essential medium, Life Technologie Sarl) comprising 0.5 or 2% by weight fetal calf serum (FCS) for 14 days at 37° C. in a 5% CO2 atmosphere in Petri dishes (5 ml per dish) with the addition of different concentrations of the plant extracts to be tested.
The kinetics of the collagen gel […] was determined 2 to 3 times per week by measuring two perpendicular diameters on each collagen gel using a microscope with an image analysis system. The size of the area is shown in cm^2 in Table 8. After incubation for 14 days, the density of the collagen gel was determined by image analysis with a light source of visible light, by comparatively analyzing different gray stages. This is a relative determination of the density (0=clear or white and 1=black), which cannot be given a unit.
After an incubation period of 7 and 14 days, biopsies (tissue samples) were taken and histological sections of the collagen gel containing human fibroblasts were obtained. The synthesis of macromolecules was analyzed and quantified by the staining of glycosaminoglycan with PAS Alcian blue, for example from SIGMA, by the periodic acid-Schiff method (PAS) described in: Mowry R W, Anal. NY Adad. Sci. 106 Art 2, 402, 1963. The stimulation of the synthesis of macromolecules was evaluated in the immediate vicinity of fibroblasts. This zone is also referred to as the “perifibroblast area”.
The “perifibroblast” secretion, or the secretion of fibroblasts into the periphery, was quantified by an image analyzer by means of a microscope. Reactive structures in the “perifibroblast area” were detected, and the different gray stages were comparatively determined. The values of the gray stages were thereby subdivided from 0=white to 255=black. These parameters are directly proportional to the intensity of the synthesis of macromolecules and thus to the GAG content of the fibroblasts.
The results of the values of these parameters are shown in Table 3 below and are to be regarded directly as representative values for the synthesis activity of the fibroblasts. The content of GAGs is described as a relative value of the gray stage.

type I collagen = assay: Inhibition of the non-enzymatic glycation of collagen (Schiff's bases, fluorescence 430 nm); type: biochemical; details: type I collagen with glucose, 21 days at 45° C.; control with glucose 100, control without glucose 46
Text: Glycation is a non-enzymatic reaction of glucose or other sugars with proteins to form glycoproteins. This reaction leads to unintentional changes in the collagen and elastin and thus to changes in the extracellular matrix. The function of the collagen and the extracellular matrix is disrupted. The prevention according to the invention of glycation leads to a reduction in the non-enzymatic change in collagen and elastin and thus to the prevention of a reduced function of the extracellular matrix.
The suspensions were then centrifuged and the content of Schiff's bases in the supernatant liquid was determined by fluorescence measurement at 430 nm. The results are again based on the control as standards (without extract and without glucose).

[2] = tested on: glucose-6-phosphate dehydrogenase (G6PDH); assay: G6PDH activity in vitro on human fibroblasts (enzymatic method of Okada); type: cell-based; details: 0.001 % w/v; for G6PDH after 3 d: compared to blank sample = 100, after 3 d; for G6PDH after 6 d: compared to blank sample = 100, after 6 d
Text: (§1) The enzyme glucose-6-phosphate dehydrogenase (G6PDH) catalyzes the first step of the so-called “pentose pathway”, in which an important DNA component, namely deoxyribose, is formed. Glucose 6-phosphate (G6P) is thereby converted into 6-phosphogluconate (6PG) by means of G6PDH. At the same time, the coenzyme NADP required thereby is reduced to NADPH2, which in turn is able to catalyze a large number of other biological reactions such as, for example, the recycling of glutathione or lipid synthesis. Reduced glutathione protects many enzymes which have SH groups and cells against oxidative stress, such as, for example, the action of UV. The G6PDH content is thus an important parameter for cell protection and skin renewal. G6PDH activity was determined in vitro on human fibroblasts by the enzymatic method of Okada, while the DNA content was determined by the Desaulniers method. The results of 3 series of measurements with triple determination are given in %-rel. compared to a blank sample.

pancreas elastase = pancreas elastase (Sus scrofa, UniProt P00772); assay: Inhibition of elastase activity (chromogenic labelled elastin substrate, OD 410 nm); type: biochemical; details: 0.3% by weight; 30 minutes at room temperature; relative to control = 0%
pancreas elastase, sequence (P00772 27-266): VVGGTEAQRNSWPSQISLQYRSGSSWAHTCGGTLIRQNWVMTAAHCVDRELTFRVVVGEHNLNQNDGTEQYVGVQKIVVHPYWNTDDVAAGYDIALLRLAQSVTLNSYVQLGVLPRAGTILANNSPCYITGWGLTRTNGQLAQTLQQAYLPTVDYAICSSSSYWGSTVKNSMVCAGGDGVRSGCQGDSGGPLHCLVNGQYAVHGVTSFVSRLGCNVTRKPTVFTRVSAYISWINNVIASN
Method: Elastase is a protease which is secreted by the fibroblasts under inflammatory conditions and is jointly responsible for the degradation of dermal macromolecules, such as, for example, collagen and elastin, and thus for skin ageing.
In order to determine the effectiveness of the plant extract in inhibiting the release of elastase, pancreas elastase (a serine protease) was studied and, as substrate, elastin was labeled with a chromogenic synthetic substrate. The system was incubated with the active ingredients for 30 minutes at room temperature and then, after centrifugation, the optical density of the dye at 410 nm was determined. The amount of extracts used was 0.3% by weight. The results were given relative to a control as standard (=0%); al-antitrypsin was used as the standard.

human fibroblasts [3] = assay: DNA content of human fibroblasts (Desaulniers method); type: cell-based; details: 0.001 % w/v; for DNA after 3 d: compared to blank sample = 100, after 3 d; for DNA after 6 d: compared to blank sample = 100, after 6 d
Text: as §1

[4] = tested on: human fibroblasts and human keratinocytes; assay: Inhibition of apoptosis induced by growth factor deficiency (cell count, BrdU ELISA of cytoplasmic DNA fragments); type: cell-based; details: 0.001 % w/v, in comparison to the control = 100; for Content of DNA fragments: BrdU in cytoplasmic DNA fragments, based on a million cells
Text: Apoptosis, unlike necrosis, is the natural purposive cell death of specific undesired or damaged cells. It is an active process of the cells (suicide on command). In the case of skin ageing especially, a deficiency of growth factors in the skin leads to induced apoptosis of the skin cells. In the cells affected by apoptosis, the nuclear DNA is degraded by the specific enzyme endonuclease and the DNA fragments are passed into the cytoplasm.
The ability of carnosines to prevent apoptosis induced by a deficiency of growth factors in human skin cells was studied. These tests were carried out in vitro on human fibroblasts and human keratinocytes. The human cells were cultivated in a nutrient medium (DMEM=Dulbecco minimum essential medium from Life Technologie Sarl) with 10% fetal calf serum (from Dutcher). Bromodeoxyuridine (BrdU) was added to the nutrient medium; it was incorporated into the DNA and later served for detection of the DNA fragments in the cytoplasm. After an incubation period of two days, the nutrient medium was replaced by nutrient medium (DMEM) without fetal calf serum. The active substance to be tested was added. For comparison, a cell sample without active substance to be tested was incubated.
After a further incubation period of one or two days at 37° C., the cells were recovered by trypsinization according to the method of Dunnebacke and Zitcer described in: Cell and tissue culture, Ed.: J. Paul, Churchill Livingstone, 1975, p. 226. After the trypsinization, the cells were centrifuged and counted. Then the content of BrdU in the DNA fragments from the cytoplasm was determined by means of the ELISA test (ELISA kit from Roche). The content of BrdU is a measure of the DNA fragments which have passed from the nucleus, the cell core, into the cytoplasm. The results were based on a million cells and given in percent in comparison to the control.

SMILES	Area, 7 days (human fibroblasts [1]; collagen gel area, 7 days) [cm2]	Area, 14 days (human fibroblasts [1]; collagen gel area, 14 days) [cm2]	Density, 14 days (human fibroblasts [1]; 14 days)	GAG content, 7 days (human fibroblasts [1]; relative value of the gray stage (0=white to 255=black), perifibroblast area, 7 days)	GAG content, 14 days (human fibroblasts [1]; relative value of the gray stage (0=white to 255=black), perifibroblast area, 14 days)	Inhibition of the glycation of collagen, Inhibition [%] (type I collagen)	G6PDH after 3 d [2] [%-rel.]	G6PDH after 6 d [2] [%-rel.]	Elastase inhibition, Inhibition [%] (pancreas elastase)	DNA after 3 d (human fibroblasts [3]) [%-rel.]	DNA after 6 d (human fibroblasts [3]) [%-rel.]	Content of DNA fragments [4] [%]	Cell count ([4]; medium without fetal calf serum) [%]
Cl.NCCC(=O)NCCc1cnc[nH]1 [Carnicine*HCl]	9.9	5.8	0.25	11.8	13.3	65	104	109	28	106	118	88	118
NCCC(=O)N[C@@H](Cc1cnc[nH]1)C(=O)O [L-Carnosine]			0.25			68					120	85	
CCCCC(CC)COC(=O)C(C#N)=C(c1ccccc1)c1ccccc1 (stereo not drawn) [Octocrinyl, reference compound]							89	85		95	90		
